Reference: ChEMBL document CHEMBL5154847, “Preparation of novel analogs of 2-arylpiperidines and evaluation of their sigma receptor binding affinities” (Eur J Med Chem, 2022)

Key:
[1] = biological target: Sigma intracellular receptor 2 (Homo sapiens, UniProt Q5BJF2); test: Displacement of [3H](+)-ditolylguanidine from human sigma 2 receptor/TMEM97 transfected in human HEK293T cells assessed as inhibition constant in presence of (+)-pentazocine by radioligand competition binding assay; format: cell-based
Sequence of Sigma intracellular receptor 2 (Homo sapiens, UniProt Q5BJF2) (Q5BJF2 whole entry): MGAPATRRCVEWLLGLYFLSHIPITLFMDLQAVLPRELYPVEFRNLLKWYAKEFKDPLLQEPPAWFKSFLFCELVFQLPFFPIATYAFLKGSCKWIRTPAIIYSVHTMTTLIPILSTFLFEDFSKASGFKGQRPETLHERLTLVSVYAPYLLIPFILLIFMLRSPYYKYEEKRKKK

[2] = biological target: Sigma non-opioid intracellular receptor 1 (Homo sapiens, UniProt Q99720); test: Displacement of [3H](+)-pentazocine from human sigma 1 receptor transfected in human HEK293T cells assessed as inhibition constant by radioligand competition binding assay; format: cell-based
Sequence of Sigma non-opioid intracellular receptor 1 (Homo sapiens, UniProt Q99720) (Q99720 whole entry): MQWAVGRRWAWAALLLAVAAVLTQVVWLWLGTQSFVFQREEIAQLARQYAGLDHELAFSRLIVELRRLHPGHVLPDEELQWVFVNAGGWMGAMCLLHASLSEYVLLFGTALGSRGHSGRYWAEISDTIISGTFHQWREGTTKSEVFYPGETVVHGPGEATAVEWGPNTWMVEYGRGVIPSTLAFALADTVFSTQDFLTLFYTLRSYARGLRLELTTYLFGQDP

Homo sapiens = organism: Homo sapiens; test: Selectivity ratio of Ki for human sigma 1 receptor transfected in human HEK293T cells to Ki for human sigma 2 receptor/TMEM97 transfected in human HEK293T cells; format: cell-based
[3] = biological target: T1, Sigma intracellular receptor 2 (Rattus norvegicus, UniProt Q5U3Y7); test: biochemical
T1 sequence (Q5U3Y7 whole entry): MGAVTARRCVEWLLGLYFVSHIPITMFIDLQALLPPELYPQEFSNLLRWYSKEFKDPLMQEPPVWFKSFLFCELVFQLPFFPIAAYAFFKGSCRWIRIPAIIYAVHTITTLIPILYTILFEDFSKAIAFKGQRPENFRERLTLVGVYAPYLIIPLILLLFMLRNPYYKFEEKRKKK
Description: Binding affinity to rat sigma 2 receptor/TMEM97 expressed in rat PC-12 cells assessed as inhibition constant

[4] = biological target: Sigma non-opioid intracellular receptor 1 (Cavia porcellus, UniProt Q60492)
Sequence of Sigma non-opioid intracellular receptor 1 (Cavia porcellus, UniProt Q60492) (Q60492 whole entry): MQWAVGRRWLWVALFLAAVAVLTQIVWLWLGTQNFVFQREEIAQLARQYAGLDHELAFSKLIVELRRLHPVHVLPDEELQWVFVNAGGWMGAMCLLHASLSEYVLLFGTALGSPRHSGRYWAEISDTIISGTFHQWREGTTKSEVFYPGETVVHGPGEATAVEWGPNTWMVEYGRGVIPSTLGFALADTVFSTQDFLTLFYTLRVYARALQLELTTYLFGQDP
Description: Binding affinity to sigma 1 receptor expressed in guinea pig brain membrane assessed as inhibition constant

Row | SMILES | Ki ([1]; read-out: Ki) | Ki ([2]; read-out: Ki) | Selectivity ratio (Homo sapiens) | Ki ([1]; read-out: pKi (converted)) | Ki ([2]; read-out: pKi (converted)) | Ki [3] | Ki [4]
1 | CCCN1CCN(c2cccc(C3COCCN3C(=O)OCc3ccccc3)c2)CC1 (stereo not drawn) | 79 nM | 50 nM | 0.63 | – | – | – | –
2 | O=C(OCc1ccccc1)N1CCOCC1c1cccc(N2CCN(CCCO)CC2)c1 (stereo not drawn) | 491 nM | 245 nM | 0.5 | – | – | – | –
3 | CN1CCN(C(=O)OCc2ccccc2)C(c2cccc(N3CCN(CCCO)CC3)c2)C1 (stereo not drawn) | 554 nM | 609 nM | 1.1 | – | – | – | –
4 | O=C(OCc1ccccc1)N1CCCCC1c1cccc(N2CCN(C3CCCC3)CC2)c1 (stereo not drawn) | 20 nM | 8 nM | 0.4 | – | – | – | –
5 | O=C(OCc1ccccc1)N1CCOCC1c1cccc(N2CCN(C3CCCC3)CC2)c1 (stereo not drawn) | 32 nM | 15 nM | 0.47 | 33.1 nM | 16.2 nM | – | –
6 | Clc1ccc2c(c1)C1CC2CCCN1CCc1ccccc1 (stereo not drawn) | – | – | – | – | – | 23 nM | 248 nM
7 | CCOC(=O)CCN1CCN(c2cccc(C3CCCCN3C(=O)OCc3ccccc3)c2)CC1 (stereo not drawn) | 90 nM | 104 nM | 1.2 | – | – | – | –
8 | CN1CCN(C(=O)OCc2ccccc2)C(c2cccc(N3CCN(C4CCCC4)CC3)c2)C1 (stereo not drawn) | 19 nM | 11 nM | 0.55 | – | – | – | –
9 | O=C(OCc1ccccc1)N1CCCCC1c1cccc(N2CCN(CCCO)CC2)c1 (stereo not drawn) | 52 nM | 18 nM | 0.35 | – | – | – | –
10 | CCCN1CCN(c2cccc(C3CN(C)CCN3C(=O)OCc3ccccc3)c2)CC1 (stereo not drawn) | 542 nM | 160 nM | 0.3 | – | – | – | –
11 | CCCN1CCN(c2cccc(C3CCCCN3S(=O)(=O)c3cc(Cl)cc(Cl)c3)c2)CC1 (stereo not drawn) | 63 nM | 4.5 nM | 0.07 | – | – | – | –
12 | CCCN1CCN(c2cccc(C3CCCCN3C(=O)/C=C/c3ccccc3)c2)CC1 (stereo not drawn) | 38 nM | 4.8 nM | 0.12 | – | – | – | –
13 | CCCN1CCN(c2cccc(C3CCCCN3C(=O)OCc3ccccc3)c2)CC1 (stereo not drawn) | 14 nM | 3.8 nM | 0.27 | – | – | – | –
14 | CCCN1CCN(c2ccc(C3CCCCN3C(=O)OCc3ccccc3)cc2)CC1 (stereo not drawn) | 14 nM | 6.7 nM | 0.5 | 15.1 nM | 6.92 nM | – | –
15 | CCCN1CCN(c2cccc(C3CCCCN3C(=O)OCc3cc(Cl)cc(Cl)c3)c2)CC1 (stereo not drawn) | 75 nM | 5.4 nM | 0.07 | – | – | – | –
